pIC50: −log10 of the molar value. Like-named read-outs stand apart in the source and are kept apart here.
What was measured:
[1] = Acute toxicity (mortality, LD50) in mice; format: in vivo; conditions: in vivo, mouse
souris = experiment: Acute toxicity (mortality, LD50) in mice; format: in vivo; conditions: mouse
[2] = test system: contractions de strips aortiques isolés de lapin induites par la noradrénaline; experiment: Alpha-blocking activity in vitro: antagonism of noradrenaline-induced contractions of isolated rabbit aortic strips; format: cell-based; conditions: Oryctolagus cuniculus, 1 h; noradrenaline 2.10^-6 mole/l; compound added 60 mn before the agonist; limits in brackets; read-out: CI50 (concentration inhibant 50% des contractions)
From the text: Activité alohabloauante : In vitro l'activité alphabloquante est appréciée par la détermination de l'antagonisme des contractions de strips aortiques isolés de lapin induites par la noradrénaline employée à la concentration de 2.10^-6 mole/l selon une technique dérivée de celle de Furchgott et Bhadrakom (J. Pharmacol., 1953, 108, 129-43). L'activité maximale est obtenue quand le COR28 35 est introduit dans le bain 60 mn avant l'agoniste. La CI50 (concentration inhibant 50% des contractions) est égale dans ces conditions à 1,52.10-' (1,12.10^-7 -2,07.10-') mole/l.

[3] = test system: hypertension induite par la phényléphrine; experiment: Alpha-blocking activity in vivo: antagonism of phenylephrine-induced hypertension in pithed, bivagotomised rats (i.v.); design: species or system rats amyélés et bivagotomisés; conditions: for ED50: Rattus norvegicus, iv, read-out: DE50 (the source's name)
From the text: ln vivo l'activité alpha bloquante est appréciée par la détermination de l'antagonisme de l'hypertension induite par la phényléphrine. Le produit à tester est administré par voie intraveineuse à des rats amyélés et bivagotomisés selon la technique de J.S.Gillespie et T.S. Muir (Br.J. Pharmac. Chemother., 1967, 30, 78-87). On indique ci-après pour le COR28 35, en fonction de la dose administrée, l'activité maximale et le temps au bout duquel l'activité résiduelle est égale à 50% de l'activité maximale : 4,42.10^-7 M/kg, --77,8%. 30 mn; 10^-6 M/kg, -94,5%, 55 mn; 3,53.10^-6 M/kg, -97,1%, 90 mn. La DE50 déterminée dans ces conditions pour le COR28 35 est de 1,48.10^-8 mole/kg au bout de 2 mn, 6,77.10^-7 mole/kg au bout de 30 mn et 1,87.10^-6 mole/kg au bout de 60 mn.

[4] = test system: effet hypertenseur induit par 4.10-' mg/kg de phényléphrine; experiment: Alpha-blocking activity in conscious normal rats: antagonism of the phenylephrine pressor effect (oral); format: in vivo, rat Sprague-Dawley normal vigile
From the text: L'activité alphabloquante des produits selon la présente invention à également été déterminée chez le rat Sprague-Dawley normal vigile. Les veines jugulaires et les artères carotides des animaux sont cathétérisées sous anesthésie à l'éther. Après récupération d'une heure, la pression artérielle et la fréquence cardiaque sont enregistrées de façon continue. L'activité des produits à tester, administrés par voie oral, vis à vis de l'effet hypertenseur induit par 4.10-' mg/kg de phényléphrine est déterminée. On indique ci-après pour le COR28 35, en fonction de la dose administrée, l'activité maximale et le temps au bout duquel l'activité résiduelle est égale à 50% de l'activité maximale : 5 mg/kg, -38,75%, 66 mm; 10 mg/kg, --37.18%. 65 mn; 20 mg/kg, -66,37%, 66 mn.

[5] = test system: rats spontanément hypertendus; experiment: Antihypertensive activity in spontaneously hypertensive rats (oral); format: in vivo
Description: Activité antihvoertensive : le produit à tester est administré par voie orale à des rats spontanément hypertendus. La pression artérielle est mesurée de façon indirecte en utilisant un sphygmomanomètre. Pour le COR28 35 administré à la dose de 100 mg/kg/j pendant 2 jours, la chute de pression maximale observée est de 14% le premier jour de traitement, 1 heure après le gavage. […] Administré dans les mêmes conditions à la dose de 50 mg/kg/j, la chute de pression artérielle maximale est de 15% 1 heure après gavage.

[6] = test system: contractions induites par 2,5.10^-8 g/ml d'angiotensine I sur des préparations de segments d'iléon de cobaye; experiment: Inhibition of angiotensin I-induced contractions of guinea-pig ileum segments; format: cell-based; conditions: concentration 10-' g/ml; angiotensin I 2,5.10^-8 g/ml added 2 mn after the compound
From the text: L'activité inhibitrice des produits de la présente invention vis à vis des contractions induites par 2,5.10^-8 g/ml d'angiotensine I sur des préparations de segments d'iléon de cobaye a été déterminée. L'angiotensine 1 est introduite dans le bain 2 mn après le produit à tester. Dans ces conditions, le COR28 35 entraine 51% d'inhibition des contractions à la concentration de 10-' g/ml.

[7] = test system: anaphylaxie passive cutanée; experiment: Antiallergic activity: passive cutaneous anaphylaxis test; format: in vivo; conditions: rat, oral
Description: Activité antiallergigue : dans le test de l'anaphylaxie passive cutanée, le COR28 35 administré à 5 mg/kg par voie orale chez le rat entraine 60% d'activité. La prométhazine, administrée dans les mêmes conditions, entraine 53% d'activité à la dose de 10 mg/kg.

[8] = test system: contraction induite par 5.10^-7g/ml de sérotonine sur iléon isolé de cobaye; experiment: Antiserotoninergic activity: serotonin-induced contraction of isolated guinea-pig ileum; format: cell-based; conditions: serotonin 5.10^-7g/ml; compound in contact 15 mn before the agonist; limits in brackets; read-out: CI50 (ou concentration inhibant 50% des contractions)
From the text: Activité antisérotoninergigue : le COR28 35 inhibe in vitro la contraction induite par 5.10^-7g/ml de sérotonine sur iléon isolé de cobaye. L'effet maximum est obtenu quand le COR28 35 est mis au contact de l'organe isolé 15 mn avant d'introduire l'agoniste. La CI50 (ou concentration inhibant 50% des contractions) est dans ces conditions de 1,58.10^-7(1,00.10^-7-2,51.10^-7) mole/l.

[9] = test system: tremblements musculaires produits chez la souris par l'administration de 0,5 mg/kg d'oxotrémorine; experiment: Anticholinergic activity: oxotremorine-induced muscle tremors in mice; format: in vivo; conditions: mouse, intraperitoneal, assessed one hour after administration, oxotremorine 0,5 mg/kg s.c.
Description: Activité anticholineraiaue : l'activité inhibitrice des produits de la présente invention vis à vis des tremblements musculaires produits chez la souris par l'administration de 0,5 mg/kg d'oxotrémorine par voie sous cutanée est déterminée. L'eftet est apprécié une heure après l'administration par voie intrapéritonéale des produits à tester; dans ces conditions, le COR28 35 est actif à la dose de 5mg/kg.

[10] = test system: souris rendue hy- percholestérotémique; experiment: Hypolipidaemic activity in mice made hypercholesterolaemic by diet; format: in vivo; conditions: mouse, oral, 200 mg/kg on days 6 and 7 of the diet
Description: Activité hvoolioidémiante : chez la souris rendue hy- percholestérotémique par un régime riche en cholestérol et acide cholique pendant 7 jours, l'administration de 200 mg/kg de COR28 35 par voie orale, le 6° et le 7° jour, entraine une diminution du cholestérol sérique de 17% et une diminution des HP-bétalipoprotéines de 27% accompagnées d'une diminution du rapport VLDL + LDL/cholestérol.

With `Cc1cc(OCCN(C)CCOc2cc(C)c(O)cc2C(C)C)c(C(C)C)cc1O` [COR28 35] the mortality ([1]; ip, intraperitoneal, 1000 mg/kg, read-out: mortalité) was 40%, the LD50 ([1]; intravenous, limits in brackets, read-out: DL50 (the source's name)) was 53.5 mg/kg and the mortalité (souris; intraperitoneal, 500 mg/kg) was “aucune mortalité”. The mortalité (souris; oral, 300 mg/kg) was “aucune mortalité”, the pIC50 [2] was 6.82 and the ED50 ([3]; 2 min, i.v., after 2 mn) was 0.0148 µmol/kg. For the same compound, the ED50 ([3]; 0.5 h, i.v., after 30 mn) was 0.677 µmol/kg, the ED50 ([3]; 1 h, i.v., after 60 mn) was 1.87 µmol/kg and the activité maximale ([3]; i.v., 3,53.10^-6 M/kg) was -97,1%. For the same compound, the “temps au bout duquel l'activité résiduelle est égale à 50% de l'activité maximale” value ([3]; i.v., 3,53.10^-6 M/kg) was 90 mn, the “temps au bout duquel l'activité résiduelle est égale à 50% de l'activité maximale” value ([3]; i.v., 4,42.10^-7 M/kg) was 30 mn and the activité maximale ([3]; i.v., 10^-6 M/kg) was -94,5%. For the same compound, the “temps au bout duquel l'activité résiduelle est égale à 50% de l'activité maximale” value ([3]; i.v., 10^-6 M/kg) was 55 mn, the activité maximale ([4]; 5 mg/kg) was -38,75% and the temps au bout duquel l'activité résiduelle est égale à 50% de l'activité maximale ([4]; 5 mg/kg) was 66 min. For the same compound, the “temps au bout duquel l'activité résiduelle est égale à 50% de l'activité maximale” value ([4]; 10 mg/kg) was 65 mn, the activité maximale ([4]; 20 mg/kg) was -66,37% and the “temps au bout duquel l'activité résiduelle est égale à 50% de l'activité maximale” value ([4]; 20 mg/kg) was 66 mn. The “chute de pression artérielle maximale” value ([5]; 50 mg/kg/j, 1 hour after gavage) was 15%, the “pression par rapport au lot témoin” value ([5]; 100 mg/kg/j for 2 days, 6 hours after gavage on the second day) was “significativement abaissée” and the “chute de pression maximale observée” value ([5]; 100 mg/kg/j for 2 days, first day of treatment, 1 hour after gavage) was 14%. For the same compound, the inhibition des contractions [6] was 51%, the activité ([7]; 5 mg/kg) was 60% and the pIC50 [8] was 6.80. For the same compound, the “activité inhibitrice vis à vis des tremblements musculaires” value [9] was “actif”, the “diminution des HP-bétalipoprotéines” value [10] was 27% and the “diminution du cholestérol sérique” value [10] was 17%. The “rapport VLDL + LDL/cholestérol” value [10] was “diminution”.

With `CC(CN1c2ccccc2Sc2ccccc21)N(C)C` (centres unmarked) [prométhazine, reference compound] the activité ([7]; 10 mg/kg) was 53%.
